Assay [1] concerns the target KRas G12D (Homo sapiens, UniProt P01116, G12D). The experiment in a line: biochemical.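 Note: TR-FRET displacement binding assay on KRas, read after a one-hour incubation at room temperature, IC50 fitted from percent-of-control values.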
Method: (§1) The ability of a compound to bind to KRas was measured using a TR-FRET displacement assay. […] After a 60-minute incubation at room temperature, the reaction was measured using a BMG LABTECH CLARIO star Plus via TR-FRET. […] The POC values were fit to a 4-parameter IC50 equation and the IC50 value reported.
For assay [2], the target named is KRas G12V (Homo sapiens, UniProt P01116, G12V). As to the kind of experiment: biochemical.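 Note: KRas binding measured by TR-FRET displacement at room temperature, IC50 fitted from percent of control values.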
Chain of KRas G12V (P01116 1-169 isoform P01116-2 G12V): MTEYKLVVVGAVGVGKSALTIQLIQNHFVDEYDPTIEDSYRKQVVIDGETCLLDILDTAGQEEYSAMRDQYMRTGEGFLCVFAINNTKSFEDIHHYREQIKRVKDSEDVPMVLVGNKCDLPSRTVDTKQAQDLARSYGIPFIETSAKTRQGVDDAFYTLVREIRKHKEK
Method: as §1
In assay [3] the target is KRas G12R (Homo sapiens, UniProt P01116, G12R). As to the kind of experiment: biochemical.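 Note: TR-FRET displacement assay of compound binding to KRas, read after one hour at room temperature, potency from a four-parameter fit of percent-of-control values.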
Chain of KRas G12R (P01116 1-169 isoform P01116-2 G12R): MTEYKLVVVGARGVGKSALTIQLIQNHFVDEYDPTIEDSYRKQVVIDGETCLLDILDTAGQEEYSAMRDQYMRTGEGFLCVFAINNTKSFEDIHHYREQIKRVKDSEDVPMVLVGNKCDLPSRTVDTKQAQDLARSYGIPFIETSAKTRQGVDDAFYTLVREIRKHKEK
Method: as §1
The target of assay [4] is KRas G12C (Homo sapiens, UniProt P01116, G12C). As to the kind of experiment: biochemical.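 Note: binding to KRas assessed by TR-FRET displacement after one hour incubation at room temperature, potency fitted from percent-of-control values.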
Chain of KRas G12C (P01116 1-169 isoform P01116-2 G12C): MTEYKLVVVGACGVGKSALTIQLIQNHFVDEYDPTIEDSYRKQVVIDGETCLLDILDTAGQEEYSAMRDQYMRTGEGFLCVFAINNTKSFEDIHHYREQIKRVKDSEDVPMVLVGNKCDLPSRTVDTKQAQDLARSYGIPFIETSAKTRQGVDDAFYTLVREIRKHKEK
Method: as §1
Assay [5] deals with pERK in ASPC1 cells. The experiment in a line: Inhibition of KRas phosphorylation of ERK (Cisbio HTRF pERK assay). To be noted: Homo sapiens, ASPC1, read-out: Inhibition (HTRF IC50) of KRas-mediated Phosphorylation of ERK, AsPC-1. Background: In TR-FRET formats the signal depends on donor and acceptor labels being close together.
The subject of assay [6] is pERK in H727 cells. The assay is described as above. To be noted: Homo sapiens, NCI-H727, read-out: Inhibition (HTRF IC50) of KRas-mediated Phosphorylation of ERK, H727.
In assay [7] the test system is pERK in MKN1 cells. The description is as above. The conditions noted are these: Homo sapiens, MKN-1, 3 h, read-out: Inhibition (HTRF IC50) of KRas-mediated Phosphorylation of ERK, MKN1.
In assay [8] the test system is pERK in PSN1 cells. Described as above. The conditions noted are these: Homo sapiens, PSN1, 3 h, read-out: Inhibition (HTRF IC50) of KRas-mediated Phosphorylation of ERK, PSN1.

Chain of KRas G12D (P01116 1-169 isoform P01116-2 G12D): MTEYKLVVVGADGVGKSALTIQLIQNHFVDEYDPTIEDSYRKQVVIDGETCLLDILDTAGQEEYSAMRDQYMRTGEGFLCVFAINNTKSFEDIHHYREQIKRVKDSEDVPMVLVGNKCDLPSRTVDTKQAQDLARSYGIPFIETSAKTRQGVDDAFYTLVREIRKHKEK

`Cc1cc2[nH]ncc2c(-c2ncc3c(N4CCCC(C)(O)C4)nc(OCC45CCCN4CCC5)nc3c2F)c1C` (centres unmarked) [Example 25, 1-(7-(5,6-dimethyl-1H-indazol-4-yl)-8-fluoro-2-((hexahydro-1H-pyrrolizin-7a-yl)methoxy)pyrido[4,3-d]pyrimidin-4-yl)-3-methylpiperidin-3-ol]: the half-maximal inhibitory concentration (IC50) is 433 nM in assay [1]; 633 nM in assay [2]; 1310 nM in assay [3]; 679 nM in assay [4]; at least 10000 nM in assay [5]; at least 10000 nM in assay [6].

For the compound `CCc1c(F)ccc2cc(O)cc(-c3ncc4c(N5CCCC6(CC(F)C6)C5)nc(OC[C@@]56CCCN5C[C@H](F)C6)nc4c3F)c12` (stereo partly drawn) [Example 344, 5-ethyl-6-fluoro-4-(8-fluoro-4-(2-fluoro-6-azaspiro[3.5]nonan-6-yl)-2-(((2R,7aS)-2-fluorohexahydro-1H-pyrrolizin-7a-yl)methoxy)pyrido[4,3-d]pyrimidin-7-yl)naphthalen-2-ol], the IC50 in assay [1] was 138 nM; in assay [2], 83 nM; in assay [3], 94 nM; in assay [7] it was 796 nM; in assay [8], at least 10000 nM; in assay [5], 3410 nM. Also, the half-inhibitory concentration (IC50) in assay [6] stood at 4820 nM.

On to `CCc1c(F)ccc2cc(O)cc(-c3ncc4c(N5CCCC(NS(N)(=O)=O)C5)nc(OC[C@@]56CCCN5C[C@H](F)C6)nc4c3F)c12` (stereo partly drawn) [Example 352, 7-(8-ethyl-7-fluoro-3-hydroxy-1-naphthyl)-8-fluoro-2-(((2R,7aS)-2-fluorohexahydro-1H-pyrrolizin-7a-yl)methoxy)-4-[3-(sulfamoylamino)-1-piperidyl]pyrido[4,3-d]pyrimidine], for which the IC50 is at most 2 nM in assay [1]; at most 2 nM in assay [2]; at most 2 nM in assay [3]; 46 nM in assay [7]; at least 10000 nM in assay [8]; 948 nM in assay [5]. In assay [6], the 50% inhibitory concentration (IC50) came out at 1270 nM.

On to `CCc1c(F)ccc2cc(O)cc(-c3ncc4c(N5C[C@@H]6C(=O)NNC(=O)[C@@H]6C5)nc(OC[C@@]56CCCN5C[C@H](F)C6)nc4c3F)c12` [Example 363, (4aR,7aS)-6-(7-(8-ethyl-7-fluoro-3-hydroxynaphthalen-1-yl)-8-fluoro-2-(((2R,7aS)-2-fluorotetrahydro-1H-pyrrolizin-7a(5H)-yl)methoxy)pyrido[4,3-d]pyrimidin-4-yl)hexahydro-1H-pyrrolo[3,4-d]pyridazine-1,4(4aH)-dione], for which the IC50 in assay [1] was 201 nM; in assay [2] it was 57 nM; in assay [3], 10 nM; in assay [7] it was at least 10000 nM; in assay [8], at least 10000 nM; in assay [5], at least 10000 nM. In addition, the concentration for half-maximal inhibition (IC50) in assay [6] is at least 10000 nM.

Regarding `CCc1c(F)ccc2cc(O)cc(-c3ncc4c(NCC5CCNC5=O)nc(OC[C@@]56CCCN5C[C@H](F)C6)nc4c3F)c12` (stereo partly drawn) [Example 368, 3-(((7-(8-ethyl-7-fluoro-3-hydroxynaphthalen-1-yl)-8-fluoro-2-(((2R,7aS)-2-fluorotetrahydro-1H-pyrrolizin-7a(5H)-yl)methoxy)pyrido[4,3-d]pyrimidin-4-yl)amino)methyl)pyrrolidin-2-one], the IC50 in assay [1] is 4 nM; in assay [2], 24 nM; in assay [3] it was 11 nM; in assay [7], 191 nM; in assay [8], at least 10000 nM; in assay [5] it was 4680 nM. Further, the half-inhibitory concentration (IC50) in assay [6] came out at 617 nM.

As for `CCc1c(F)ccc2cc(O)cc(-c3ncc4c(NCC5NC(=O)NC5=O)nc(OC[C@@]56CCCN5C[C@H](F)C6)nc4c3F)c12` (stereo partly drawn) [Example 369, 5-(((7-(8-ethyl-7-fluoro-3-hydroxynaphthalen-1-yl)-8-fluoro-2-(((2R,7aS)-2-fluorohexahydro-1H-pyrrolizin-7a-yl)methoxy)pyrido[4,3-d]pyrimidin-4-yl)amino)methyl)imidazolidine-2,4-dione], the IC50 in assay [1] is 5 nM; in assay [2], 3 nM; in assay [3], 4 nM; in assay [7], 294 nM; in assay [8], at least 10000 nM; in assay [5] it was 1340 nM. Besides, the IC50 in assay [6] is 471 nM.

Turning to `CCc1c(F)ccc2cc(O)cc(-c3ncc4c(NCC5CNC(=O)N5)nc(OC[C@@]56CCCN5C[C@H](F)C6)nc4c3F)c12` (stereo partly drawn) [Example 370, 4-(((7-(8-ethyl-7-fluoro-3-hydroxynaphthalen-1-yl)-8-fluoro-2-(((2R,7aS)-2-fluorohexahydro-1H-pyrrolizin-7a-yl)methoxy)pyrido[4,3-d]pyrimidin-4-yl)amino)methyl)imidazolidin-2-one], the half-maximal inhibitory concentration (IC50) in assay [1] was 11 nM; in assay [2] it was at most 2 nM; in assay [3] it was 5 nM; in assay [7] it was 330 nM; in assay [8] it was at least 10000 nM; in assay [5], 2980 nM. The half-inhibitory concentration (IC50) in assay [6] was 516 nM.

For `CCc1c(F)ccc2cc(O)cc(-c3ncc4c(NCCC5CCC(=O)N5)nc(OC[C@@]56CCCN5C[C@H](F)C6)nc4c3F)c12` (stereo partly drawn) [Example 377, 5-(2-((7-(8-ethyl-7-fluoro-3-hydroxynaphthalen-1-yl)-8-fluoro-2-(((2R,7aS)-2-fluorotetrahydro-1H-pyrrolizin-7a(5H)-yl)methoxy)pyrido[4,3-d]pyrimidin-4-yl)amino)ethyl)pyrrolidin-2-one], the concentration for half-maximal inhibition (IC50) is at most 2 nM in assay [1]; 3 nM in assay [2]; 12 nM in assay [3]; 2300 nM in assay [7]; at least 10000 nM in assay [8]; at least 10000 nM in assay [5]. In addition, the half-maximal inhibitory concentration (IC50) in assay [6] is 7780 nM.

As to `CCc1c(F)ccc2cc(O)cc(-c3ncc4c(NCCC5CNC(=O)N5)nc(OC[C@@]56CCCN5C[C@H](F)C6)nc4c3F)c12` (stereo partly drawn) [Example 382, 4-(2-((7-(8-ethyl-7-fluoro-3-hydroxynaphthalen-1-yl)-8-fluoro-2-(((2R,7aS)-2-fluorohexahydro-1H-pyrrolizin-7a-yl)methoxy)pyrido[4,3-d]pyrimidin-4-yl)amino)ethyl) imidazolidin-2-one], the concentration for half-maximal inhibition (IC50) in assay [1] is 9 nM; in assay [2], at most 2 nM; in assay [3], 3 nM; in assay [7] it was 781 nM; in assay [8], at least 10000 nM; in assay [5], at least 10000 nM. In assay [6], the IC50 was 5900 nM.

Regarding `CCc1c(F)ccc2cc(O)cc(-c3ncc4c(NCc5cc(C(N)=O)nn5C)nc(OC[C@@]56CCCN5C[C@H](F)C6)nc4c3F)c12` [Example 385, 5-(((7-(8-ethyl-7-fluoro-3-hydroxynaphthalen-1-yl)-8-fluoro-2-(((2R,7aS)-2-fluorohexahydro-1H-pyrrolizin-7a-yl)methoxy)pyrido[4,3-d]pyrimidin-4-yl)amino)methyl)-1-methyl-1H-pyrazole-3-carboxamide], the concentration for half-maximal inhibition (IC50) is at most 2 nM in assay [1]; at most 2 nM in assay [2]; at most 2 nM in assay [3]; 421 nM in assay [7]; at least 10000 nM in assay [8]; at least 10000 nM in assay [5]. The 50% inhibitory concentration (IC50) in assay [6] amounted to 4650 nM.

With `CCc1c(F)ccc2cc(O)cc(-c3ncc4c(N5C[C@H](CO)OC[C@](C)(O)C5)nc(OC[C@@]56CCCN5C[C@H](F)C6)nc4c3F)c12` [Example 497, (2R,6R)-4-(7-(8-ethyl-7-fluoro-3-hydroxynaphthalen-1-yl)-8-fluoro-2-(((2R,7aS)-2-fluorohexahydro-1H-pyrrolizin-7a-yl)methoxy)pyrido[4,3-d]pyrimidin-4-yl)-2-(hydroxymethyl)-6-methyl-1,4-oxazepan-6-ol], the IC50 was 43 nM in assay [7], at least 10000 nM in assay [8], 987 nM in assay [5] and 503 nM in assay [6].

For `Cc1cc2[nH]ncc2c(-c2ncc3c(N4CCOCC(C)(O)C4)nc(OCC45CCCN4CCC5)nc3c2F)c1C` (centres unmarked) [Example 522, 4-(7-(5,6-dimethyl-1H-indazol-4-yl)-8-fluoro-2-((hexahydro-1H-pyrrolizin-7a-yl)methoxy)pyrido[4,3-d]pyrimidin-4-yl)-6-methyl-1,4-oxazepan-6-ol], the IC50 in assay [1] is 292 nM; in assay [2] it was 390 nM; in assay [3], 759 nM; in assay [5] it was at least 10000 nM; in assay [6] it was at least 10000 nM.

On to `Cc1cc2[nH]ncc2c(-c2ncc3c(N4CCCC5(CC(=O)N5)C4)nc(OCC45CCCN4CCC5)nc3c2F)c1C` (centres unmarked) [Example 523, 6-(7-(5,6-dimethyl-1H-indazol-4-yl)-8-fluoro-2-((hexahydro-1H-pyrrolizin-7a-yl)methoxy)pyrido[4,3-d]pyrimidin-4-yl)-1,6-diazaspiro[3.5]nonan-2-one], for which the IC50 in assay [1] is 166 nM; in assay [2], 129 nM; in assay [3] it was 217 nM; in assay [5], at least 10000 nM; in assay [6] it was at least 10000 nM.

What is called IC50 is the concentration that gives 50% inhibition.
